Read-outs that look alike come from different tables or passages of the source.
Tests used:
[1] = system: pSer473 Akt in A2780 cells; assay: pSer473 Akt assay to monitor PI3K pathway in A2780 cells (Biological Method 2, MSD); format: cell-based; conditions: Homo sapiens, inhibition of Akt phosphorylation
Outline: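 A2780 ovarian cancer cells in DMEM/10% FBS were treated with compound for 1 h at 37 °C, then lysed. pSer473-Akt and total Akt were measured by MSD electrochemiluminescence immunoassay. The pSer473/total Akt ratio gave % inhibition versus DMSO, from which EC50 was derived.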

[2] = system: A2780 ovarian cancer cells; assay: Cellular proliferation in A2780 cells, Cell Titer Glo (Biological Method 4); format: cell-based; conditions: Homo sapiens
Outline: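 A2780 cells seeded at 1,000/well in DMEM with 10% FBS, at least 2 h before compound, then exposed 72 h at 37 °C, 5% CO2. Viable cells measured by Cell Titer Glo luminescence; EC50 calculated from duplicate conditions.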

[3] = molecular target: PI3 kinase alpha (Homo sapiens, UniProt P42336); assay: PI3K ATP depletion assay (Biological Method 1, Assay 3; KinaseGlo luminescence); format: biochemical; conditions: ATP depletion assay, read-out: PI3 Kinase Alpha, IC50
PI3 kinase alpha, sequence (P42336 whole entry): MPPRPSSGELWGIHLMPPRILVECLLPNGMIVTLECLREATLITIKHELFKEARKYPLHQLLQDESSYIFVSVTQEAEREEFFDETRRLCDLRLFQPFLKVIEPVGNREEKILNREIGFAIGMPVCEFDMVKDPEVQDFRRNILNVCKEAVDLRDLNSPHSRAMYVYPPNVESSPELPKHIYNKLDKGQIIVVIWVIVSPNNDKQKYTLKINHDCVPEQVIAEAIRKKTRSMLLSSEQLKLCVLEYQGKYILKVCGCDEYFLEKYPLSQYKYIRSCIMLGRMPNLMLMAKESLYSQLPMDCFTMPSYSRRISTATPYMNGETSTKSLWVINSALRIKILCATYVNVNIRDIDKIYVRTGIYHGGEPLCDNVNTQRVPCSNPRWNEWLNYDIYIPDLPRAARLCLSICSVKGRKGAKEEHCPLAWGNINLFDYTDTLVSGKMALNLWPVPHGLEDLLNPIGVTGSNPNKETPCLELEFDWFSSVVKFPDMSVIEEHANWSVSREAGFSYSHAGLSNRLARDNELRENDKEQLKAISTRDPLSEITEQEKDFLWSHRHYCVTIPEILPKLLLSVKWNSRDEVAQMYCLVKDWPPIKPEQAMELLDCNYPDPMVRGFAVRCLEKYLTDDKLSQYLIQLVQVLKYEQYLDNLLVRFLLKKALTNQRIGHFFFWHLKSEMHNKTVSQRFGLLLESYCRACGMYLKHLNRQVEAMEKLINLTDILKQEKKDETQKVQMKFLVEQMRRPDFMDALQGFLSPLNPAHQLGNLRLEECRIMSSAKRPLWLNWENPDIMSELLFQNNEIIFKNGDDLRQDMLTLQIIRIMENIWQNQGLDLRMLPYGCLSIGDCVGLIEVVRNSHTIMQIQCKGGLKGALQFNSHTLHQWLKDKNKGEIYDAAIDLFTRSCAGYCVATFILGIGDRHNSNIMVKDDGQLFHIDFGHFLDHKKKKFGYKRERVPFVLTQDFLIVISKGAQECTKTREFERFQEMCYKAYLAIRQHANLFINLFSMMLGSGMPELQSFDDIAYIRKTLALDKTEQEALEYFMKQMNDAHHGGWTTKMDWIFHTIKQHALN
PI3 kinase alpha, sequence (P27986 whole entry partner): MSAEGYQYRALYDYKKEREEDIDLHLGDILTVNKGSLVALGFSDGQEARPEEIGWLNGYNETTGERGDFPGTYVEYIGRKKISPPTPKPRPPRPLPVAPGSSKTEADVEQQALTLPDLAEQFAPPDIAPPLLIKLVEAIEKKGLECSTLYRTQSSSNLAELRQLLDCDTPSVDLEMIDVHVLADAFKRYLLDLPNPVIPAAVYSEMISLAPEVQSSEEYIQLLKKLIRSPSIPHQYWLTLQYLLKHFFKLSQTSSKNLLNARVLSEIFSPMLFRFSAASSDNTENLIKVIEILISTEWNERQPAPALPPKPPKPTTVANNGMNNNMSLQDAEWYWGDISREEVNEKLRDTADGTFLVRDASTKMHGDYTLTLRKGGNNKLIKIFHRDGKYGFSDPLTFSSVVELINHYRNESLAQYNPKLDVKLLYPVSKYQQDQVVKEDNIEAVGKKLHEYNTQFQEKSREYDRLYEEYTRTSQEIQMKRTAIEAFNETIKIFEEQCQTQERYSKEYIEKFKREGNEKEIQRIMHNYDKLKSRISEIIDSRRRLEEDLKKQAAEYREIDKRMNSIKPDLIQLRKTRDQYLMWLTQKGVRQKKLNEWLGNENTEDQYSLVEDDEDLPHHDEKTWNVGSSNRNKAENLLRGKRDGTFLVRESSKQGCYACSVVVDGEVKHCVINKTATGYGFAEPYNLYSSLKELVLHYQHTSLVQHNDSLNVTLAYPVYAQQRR
Outline: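 Compound in DMSO was mixed with 10 nM PI3 kinase and 5 μg/mL phosphatidylinositol, and the reaction was started with 2 μM ATP. It ran to about 50% ATP depletion and was stopped with KinaseGlo.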

[4] = ovarian cancer cell line A2780, Biological Method 4

| Compound | EC50 ([1]; A2780 cells) | EC50 ([2]; ovarian cancer cell line A2780) | IC50 [3] | EC50 ([1]; A2780, Biological Method 2) | EC50 [2, 4] | IC50 ([3]; Biological Method 1) |
| --- | --- | --- | --- | --- | --- | --- |
| CC(C)Oc1ncccc1Nc1cc(-c2cnc(N)cc2C(F)(F)F)nc(N2CCOCC2)n1 [Compound 204] |  |  |  | < 1 µM | < 25 µM | < 1 µM |
| CS(=O)(=O)c1ccc(Nc2cc(-c3cnc(N)nc3N)nc(N3CCOCC3)n2)cn1 [Compound 214] |  |  |  | < 10 µM | < 25 µM | < 1 µM |
| CC(C)N1CCC(Oc2ccc(Nc3cc(-c4cnc(N)nc4C(F)(F)F)nc(N4CCOCC4)n3)cn2)CC1 [Compound 41] | < 1 µM | < 1 µM | < 1 µM |  |  |  |
| N#Cc1ccc(Nc2cc(-c3ccc(N)nc3)nc(N3CCOCC3)n2)cc1 [Compound 179] | < 1 µM | < 10 µM | < 1 µM |  |  |  |
| Nc1ncc(-c2cc(O[C@@H]3CCOC3)nc(N3CCOCC3)n2)c(=O)[nH]1 [Compound 56] | < 1 µM | < 1 µM | < 1 µM |  |  |  |
| COc1ccc2ncc(Nc3cc(-c4ccc(N)nc4)nc(N4CCOCC4)n3)cc2c1 [Compound 211] |  |  |  | < 10 µM | < 1 µM | < 1 µM |
| CC(=O)N1CCC(Oc2cc(-c3cnc(N)nc3C(F)(F)F)nc(N3CCOCC3)n2)CC1 [Compound 119] | < 1 µM | < 1 µM | < 1 µM |  |  |  |
| CC(C)N1CC[C@@H](Oc2ccc(Nc3cc(-c4cnc(N)cc4C(F)(F)F)nc(N4CCOCC4)n3)cn2)C1 [Compound 86] | < 1 µM | < 1 µM | < 1 µM |  |  |  |
| Cc1c(-c2ccc(Nc3ncc(-c4ccccc4)s3)nc2)nc(N2CCOCC2)nc1-c1cnc(N)nc1 [Compound 194] | < 1 µM | < 10 µM | < 1 µM |  |  |  |
| COC(=O)N1CCC[C@@H](Oc2cc(-c3cnc(N)nc3N)nc(N3CCOCC3)n2)C1 [Compound 63] | < 1 µM | < 1 µM | < 1 µM |  |  |  |
| Nc1ncc(-c2cc(OC3CCN(C(=O)OCc4ccccc4)CC3)nc(N3CCOCC3)n2)c(C(F)(F)F)n1 [Compound 176] | < 1 µM | < 10 µM | < 1 µM |  |  |  |
| CC(C)N1CCC(Oc2ccc(Nc3cc(-c4cnc(N)cc4C(F)(F)F)nc(N4CCOCC4)n3)cn2)C1 (stereo not drawn) [Compound 93] | < 1 µM | < 1 µM | < 1 µM |  |  |  |
| Nc1ccc(-c2cc(Nc3ccncc3)nc(N3CCOCC3)n2)cn1 [Compound 184] | < 1 µM | < 1 µM | < 1 µM |  |  |  |
| Nc1ccc(-c2cc(Nc3ccncc3F)nc(N3CCOCC3)n2)cn1 [Compound 196] | < 1 µM | < 1 µM | < 1 µM |  |  |  |
| COC(=O)N1CCC(Oc2cc(-c3cnc(N)cc3C(F)(F)F)nc(N3CCOCC3)n2)CC1 [Compound 117] | < 1 µM | < 10 µM | < 1 µM |  |  |  |
| Cc1cc(Nc2cc(-c3ccc(N)nc3)nc(N3CCOCC3)n2)ccn1 [Compound 130] | < 1 µM | < 1 µM | < 1 µM |  |  |  |
| CS(=O)(=O)c1cccc(Nc2cc(-c3ccc(N)nc3)nc(N3CCOCC3)n2)c1 [Compound 139] | < 1 µM | < 10 µM | < 1 µM |  |  |  |
| Nc1ccc(-c2cc(Nc3cccc(-c4cnco4)c3)nc(N3CCOCC3)n2)cn1 [Compound 163] | < 1 µM | < 10 µM | < 1 µM |  |  |  |

| Compound | EC50 ([1]; A2780 cells) | EC50 ([2]; ovarian cancer cell line A2780) | IC50 [3] | EC50 ([1]; A2780, Biological Method 2) | EC50 [2, 4] | IC50 ([3]; Biological Method 1) |
| --- | --- | --- | --- | --- | --- | --- |
| N#Cc1cc(N)ncc1-c1cc(OC2CCOCC2)nc(N2CCOCC2)n1 [Compound 118] | < 1 µM | < 1 µM | < 1 µM |  |  |  |
| Nc1ccc(-c2cc(Nc3ccc(S(N)(=O)=O)cc3)nc(N3CCOCC3)n2)cn1 [Compound 190] | < 1 µM | < 10 µM | < 1 µM |  |  |  |
| Nc1ncc(-c2cc(NC(=O)c3cccnc3)nc(N3CCOCC3)n2)cn1 [Compound 189] | < 1 µM | < 10 µM | < 1 µM |  |  |  |
| CCc1c(Nc2cnc3ccccc3c2)nc(N2CCOCC2)nc1-c1cnc(N)nc1 [Compound 98] | < 1 µM | < 1 µM | < 1 µM |  |  |  |
| Cc1c(Nc2ncc(C#N)s2)nc(N2CCOCC2)nc1-c1cnc(N)nc1 [Compound 71] | < 1 µM | < 1 µM | < 1 µM |  |  |  |
| COC(=O)N1CCC(Oc2cc(-c3cnc(N)[nH]c3=O)nc(N3CCOCC3)n2)CC1 [Compound 31] | < 1 µM | < 1 µM | < 1 µM |  |  |  |
| Nc1ncc(-c2cc(-c3cnc(N)nc3C(F)(F)F)nc(N3CCOCC3)n2)c(C(F)(F)F)n1 [Compound 121] | < 1 µM | < 1 µM | < 1 µM |  |  |  |
| Nc1cc(C(F)(F)F)c(-c2cc(-c3nccs3)nc(N3CCOCC3)n2)cn1 [Compound 138] | < 1 µM | < 10 µM | < 1 µM |  |  |  |
| Nc1ncc(-c2cc(Nc3cccc(F)c3)nc(N3CCOCC3)n2)cn1 [Compound 111] | < 1 µM | < 10 µM | < 1 µM |  |  |  |
| COc1cc(N)ncc1-c1cc(Nc2cnc3ccccc3c2)nc(N2CCOCC2)n1 [Compound 200] |  |  |  | < 1 µM | < 1 µM | < 1 µM |
| Nc1cc(F)c(-c2cc(Nc3cnc4ccccc4c3)nc(N3CCOCC3)n2)cn1 [Compound 4] | < 1 µM | < 1 µM | < 1 µM |  |  |  |
| CS(=O)(=O)Nc1ncccc1-c1cc(-c2cnc(N)cc2Cl)nc(N2CCOCC2)n1 [Compound 170] | < 1 µM | < 1 µM | < 1 µM |  |  |  |
| Nc1ccc(-c2cc(-c3cccnc3NCCO)nc(N3CCOCC3)n2)cn1 [Compound 104] | < 1 µM | < 10 µM | < 1 µM |  |  |  |
| CC(C)C(=O)N1CCC[C@@H](Oc2cc(-c3cnc(N)nc3N)nc(N3CCOCC3)n2)C1 [Compound 137] | < 1 µM | < 10 µM | < 1 µM |  |  |  |
| CC(C)(C)OC(=O)N1CCC(Oc2cc(-c3cnc(N)nc3C(F)(F)F)nc(N3CCOCC3)n2)CC1 [Compound 27] | < 1 µM | < 1 µM | < 1 µM |  |  |  |
| CS(=O)(=O)c1ccc(Nc2cc(-c3ccc(N)nc3)nc(N3CCOCC3)n2)cc1 [Compound 112] | < 1 µM | < 10 µM | < 1 µM |  |  |  |
| CC(C)N1CCC(Oc2cncc(-c3cc(-c4cnc(N)cc4C(F)(F)F)nc(N4CCOCC4)n3)c2)C1 (stereo not drawn) [Compound 129] | < 1 µM | < 10 µM | < 1 µM |  |  |  |

Continued, values first:

| EC50 ([1]; A2780 cells) | EC50 ([2]; ovarian cancer cell line A2780) | IC50 [3] | EC50 ([1]; A2780, Biological Method 2) | EC50 [2, 4] | IC50 ([3]; Biological Method 1) | Compound |
| --- | --- | --- | --- | --- | --- | --- |
| < 1 µM | < 1 µM | < 1 µM |  |  |  | CC(=O)N1CCC[C@@H](Oc2cc(-c3cnc(N)nc3N)nc(N3CCOCC3)n2)C1 [Compound 29] |
| < 1 µM | < 10 µM | < 1 µM |  |  |  | CCN(CC)Cc1cnc(Nc2cc(-c3cnc(N)cc3C(F)(F)F)nc(N3CCOCC3)n2)s1 [Compound 12] |
| < 1 µM | < 1 µM | < 1 µM |  |  |  | CS(=O)(=O)c1cccc(-c2cc(-c3cnc(N)nc3N)nc(N3CCOCC3)n2)c1 [Compound 125] |
| < 1 µM | < 1 µM | < 1 µM |  |  |  | CCN(CC)CCc1csc(Nc2cc(-c3cnc(N)cc3C(F)(F)F)nc(N3CCOCC3)n2)n1 [Compound 13] |
| < 1 µM | < 1 µM | < 1 µM |  |  |  | Nc1ncc(-c2cc(Nc3ccc4ncccc4c3)nc(N3CCOCC3)n2)cn1 [Compound 46] |
| < 1 µM | < 1 µM | < 1 µM |  |  |  | Nc1ncc(-c2cc(OC3CCN(C(=O)OC4CCCC4)CC3)nc(N3CCOCC3)n2)c(N)n1 [Compound 97] |
| < 1 µM | < 1 µM | < 1 µM |  |  |  | Nc1ncc(-c2cc(OC3CCOCC3)nc(N3CCOCC3)n2)c(=O)[nH]1 [Compound 50] |
| < 1 µM | < 1 µM | < 1 µM |  |  |  | CS(=O)(=O)Nc1ncccc1-c1cc(-c2ccc(N)nc2)nc(N2CCOCC2)n1 [Compound 3] |
| < 1 µM | < 1 µM | < 1 µM |  |  |  | COc1cccc2ncc(Nc3cc(-c4ccc(N)nc4)nc(N4CCOCC4)n3)cc12 [Compound 156] |
| < 1 µM | < 1 µM | < 1 µM |  |  |  | Nc1ccc(-c2cc(-n3ncc4c(N)cccc43)nc(N3CCOCC3)n2)cn1 [Compound 168] |
| < 1 µM | < 10 µM | < 1 µM |  |  |  | CC(C)OC(=O)N1CCC[C@H](Oc2cc(-c3cnc(N)nc3N)nc(N3CCOCC3)n2)C1 [Compound 167] |
| < 1 µM | < 10 µM | < 1 µM |  |  |  | CC(C)C(=O)N1CCC[C@H](Oc2cc(-c3cnc(N)nc3N)nc(N3CCOCC3)n2)C1 [Compound 72] |
| < 1 µM | < 1 µM | < 1 µM |  |  |  | Cc1c(Nc2ccc(OC3CCN(C)CC3)nc2)nc(N2CCOCC2)nc1-c1cnc(N)nc1 [Compound 42] |
| < 1 µM | < 25 µM | < 1 µM |  |  |  | CS(=O)(=O)Nc1nc2ccccc2cc1-c1cc(-c2ccc(N)nc2)nc(N2CCOCC2)n1 [Compound 157] |
| < 1 µM | < 10 µM | < 1 µM |  |  |  | Nc1ccc(-c2cc(Nc3ccccc3S(N)(=O)=O)nc(N3CCOCC3)n2)cn1 [Compound 187] |
| < 1 µM | < 10 µM | < 1 µM |  |  |  | Nc1cc(C(F)(F)F)c(-c2cc(O[C@@H]3CCOC3)nc(N3CCOCC3)n2)cn1 [Compound 25] |
| < 1 µM | < 1 µM | < 1 µM |  |  |  | CS(=O)(=O)Nc1ncccc1-c1cc(-c2cnc(N)nc2C(F)(F)F)nc(N2CCOCC2)n1 [Compound 69] |
| < 1 µM | < 1 µM | < 1 µM |  |  |  | Nc1ncc(-c2cc(Nc3ccc(N4CCNCC4)nc3)nc(N3CCOCC3)n2)cn1 [Compound 9] |

— patent US8217035B2, “Pyrimidine derivatives used as PI-3-kinase inhibitors” (Novartis AG, priority 2006, dated 2012)
